Assay results: ChEMBL document CHEMBL4138123, “Design, synthesis and biological evaluation of novel pyrazolochalcones as potential modulators of PI3K/Akt/mTOR pathway and inducers of apoptosis in breast cancer cells” (Eur J Med Chem, 2017)

Tests used:
[1] = test system: MDA-MB-435; test: Cytotoxicity against human MDA-MB-435 cells assessed as cell growth at 0.1 uM after 48 hrs by sulforhodamine B assay relative to control; type: functional; details: MDA-MB-435, 48 h, read-out: Activity
[2] = test system: NCI-H522; test: Cytotoxicity against human NCI-H522 cells assessed as cell growth at 0.01 uM after 48 hrs by sulforhodamine B assay relative to control; type: functional; details: NCI-H522, 48 h, read-out: Activity
[3] = test system: NCI-H23; test: Cytotoxicity against human NCI-H23 cells assessed as cell growth at 0.1 uM after 48 hrs by sulforhodamine B assay relative to control; type: functional; details: NCI-H23, 48 h, read-out: Activity
[4] = test system: SNB-19; test: Cytotoxicity against human SNB19 cells assessed as growth inhibition after 48 hrs by sulforhodamine B assay; type: functional; details: SNB-19, 48 h; for CC50: read-out: LC50 (the source's name)
[5] = test system: CCRF-CEM; test: Cytotoxicity against human CCRF-CEM cells assessed as cell growth at 0.1 uM after 48 hrs by sulforhodamine B assay relative to control; type: functional; details: read-out: Activity
[6] = test system: DU-145; test: Cytotoxicity against human DU145 cells assessed as cell growth at 1 uM after 48 hrs by sulforhodamine B assay relative to control; type: functional; details: DU-145, 48 h, read-out: Activity
[7] = test system: NCI-H23; test: Cytotoxicity against human NCI-H23 cells assessed as cell growth at 0.01 uM after 48 hrs by sulforhodamine B assay relative to control; type: functional; details: NCI-H23, 48 h, read-out: Activity
[8] = test system: SF-268; test: Cytotoxicity against human SF268 cells assessed as cell growth at 0.1 uM after 48 hrs by sulforhodamine B assay relative to control; type: functional; details: SF-268, 48 h, read-out: Activity
[9] = test system: CCRF-CEM; test: Cytotoxicity against human CCRF-CEM cells assessed as cell growth at 10 uM after 48 hrs by sulforhodamine B assay relative to control; type: functional; details: read-out: Activity
[10] = test system: KM12; test: Cytotoxicity against human KM12 cells assessed as cell growth at 100 uM after 48 hrs by sulforhodamine B assay relative to control; type: functional; details: KM12, 48 h, read-out: Activity
[11] = test system: Malme-3M; test: Cytotoxicity against human MALME-3M cells assessed as cell growth at 0.1 uM after 48 hrs by sulforhodamine B assay relative to control; type: functional; details: read-out: Activity
[12] = test system: A549; test: Cytotoxicity against human A549/ATCC cells assessed as cell growth at 0.01 uM after 48 hrs by sulforhodamine B assay relative to control; type: functional; details: A549, 48 h, read-out: Activity
[13] = test system: KM12; test: Cytotoxicity against human KM12 cells assessed as cell growth at 0.1 uM after 48 hrs by sulforhodamine B assay relative to control; type: functional; details: KM12, 48 h, read-out: Activity
[14] = test system: A498; test: Cytotoxicity against human A498 cells assessed as cell growth at 100 uM after 48 hrs by sulforhodamine B assay relative to control; type: functional; details: A498, 48 h, read-out: Activity
[15] = test system: NCI/ADR-RES; test: Cytotoxicity against human NCI/ADR-RES cells assessed as cell growth at 0.01 uM after 48 hrs by sulforhodamine B assay relative to control; type: functional; details: read-out: Activity
[16] = test system: UO-31; test: Cytotoxicity against human UO31 cells assessed as growth inhibition after 48 hrs by sulforhodamine B assay; type: functional; details: UO-31, 48 h
[17] = test system: KM12; test: Cytotoxicity against human KM12 cells assessed as cell growth at 0.01 uM after 48 hrs by sulforhodamine B assay relative to control; type: functional; details: KM12, 48 h, read-out: Activity
[18] = test system: PC-3; test: Cytotoxicity against human PC3 cells assessed as cell growth at 1 uM after 48 hrs by sulforhodamine B assay relative to control; type: functional; details: PC-3, 48 h, read-out: Activity
[19] = test system: UACC-62; test: Cytotoxicity against human UACC62 cells assessed as cell growth at 0.1 uM after 48 hrs by sulforhodamine B assay relative to control; type: functional; details: UACC-62, 48 h, read-out: Activity
[20] = test system: SR; test: Cytotoxicity against human SR cells assessed as cell growth at 0.01 uM after 48 hrs by sulforhodamine B assay relative to control; type: functional; details: read-out: Activity
[21] = test system: MCF7; test: Cytotoxicity against human MCF7 cells assessed as growth inhibition after 48 hrs by MTT assay; type: functional, cell-based; details: MCF7, 48 h
[22] = test system: K562; test: Cytotoxicity against human K562 cells assessed as cell growth at 1 uM after 48 hrs by sulforhodamine B assay relative to control; type: functional; details: K562, 48 h, read-out: Activity
[23] = test system: SF-268; test: Cytotoxicity against human SF268 cells assessed as cell growth at 10 uM after 48 hrs by sulforhodamine B assay relative to control; type: functional; details: SF-268, 48 h, read-out: Activity
[24] = test system: MDA-MB-231; test: Cytotoxicity against human MDA-MB-231 cells assessed as cell growth at 10 uM after 48 hrs by sulforhodamine B assay relative to control; type: functional; details: MDA-MB-231, 48 h, read-out: Activity
[25] = test system: A549; test: Cytotoxicity against human A549/ATCC cells assessed as cell growth at 1 uM after 48 hrs by sulforhodamine B assay relative to control; type: functional; details: A549, 48 h, read-out: Activity
[26] = test system: HOP-62; test: Cytotoxicity against human HOP62 cells assessed as cell growth at 0.01 uM after 48 hrs by sulforhodamine B assay relative to control; type: functional; details: HOP-62, 48 h, read-out: Activity
[27] = test system: A498; test: Cytotoxicity against human A498 cells assessed as growth inhibition after 48 hrs by sulforhodamine B assay; type: functional; details: A498, 48 h
[28] = test system: SR; test: Cytotoxicity against human SR cells assessed as cell growth at 10 uM after 48 hrs by sulforhodamine B assay relative to control; type: functional; details: read-out: Activity
[29] = test system: HOP-62; test: Cytotoxicity against human HOP62 cells assessed as cell growth at 100 uM after 48 hrs by sulforhodamine B assay relative to control; type: functional; details: HOP-62, 48 h, read-out: Activity
[30] = test system: UACC-62; test: Cytotoxicity against human UACC62 cells assessed as cell growth at 1 uM after 48 hrs by sulforhodamine B assay relative to control; type: functional; details: UACC-62, 48 h, read-out: Activity
[31] = test system: NCI-H226; test: Cytotoxicity against human NCI-H226 cells assessed as cell growth at 0.01 uM after 48 hrs by sulforhodamine B assay relative to control; type: functional; details: NCI-H226, 48 h, read-out: Activity
[32] = test system: TK-10; test: Cytotoxicity against human TK10 cells assessed as cell growth at 0.01 uM after 48 hrs by sulforhodamine B assay relative to control; type: functional; details: TK-10, 48 h, read-out: Activity
[33] = test system: U-251; test: Cytotoxicity against human U251 cells assessed as growth inhibition after 48 hrs by sulforhodamine B assay; type: functional; details: U-251, 48 h
[34] = test system: MDA-MB-231; test: Cytotoxicity against human MDA-MB-231 cells assessed as cell growth at 0.1 uM after 48 hrs by sulforhodamine B assay relative to control; type: functional; details: MDA-MB-231, 48 h, read-out: Activity
[35] = test system: Hs-578T; test: Cytotoxicity against human Hs 578T cells assessed as cell growth at 0.01 uM after 48 hrs by sulforhodamine B assay relative to control; type: functional; details: read-out: Activity
[36] = test system: NCI-H460; test: Cytotoxicity against human NCI-H460 cells assessed as cell growth at 0.01 uM after 48 hrs by sulforhodamine B assay relative to control; type: functional; details: NCI-H460, 48 h, read-out: Activity
[37] = test system: NCI/ADR-RES; test: Cytotoxicity against human NCI/ADR-RES cells assessed as cell growth at 0.1 uM after 48 hrs by sulforhodamine B assay relative to control; type: functional; details: read-out: Activity

SMILES: COc1cc2c(cc1OC)C(=O)/C(=C/c1cc(-c3ccc4c(c3)OCO4)n[nH]1)C2
- growth at 0.1 µM [1]: 96%
- growth at 0.01 µM [2]: 91%
- growth at 0.1 µM [3]: 93%
- GI50 [4]: 1.55 µM
- TGI [4]: 2.96 µM
- CC50 [4]: 5.63 µM
- growth at 0.1 µM [5]: 96%
- growth at 1 µM [6]: 77%
- growth at 0.01 µM [7]: 93%
- growth at 0.1 µM [8]: 96%
- growth at 10 µM [9]: -44%
- growth at 100 µM [10]: -80%
- growth at 0.1 µM [11]: 84%
- growth at 0.01 µM [12]: 98%
- growth at 0.1 µM [13]: 99%
- growth at 100 µM [14]: -97%
- growth at 0.01 µM [15]: 101%
- GI50 [16]: 1.29 µM
- LC50 [16]: 5.51 µM
- TGI [16]: 2.67 µM
- growth at 0.01 µM [17]: 100%
- growth at 1 µM [18]: 65%
- growth at 0.1 µM [19]: 106%
- growth at 0.01 µM [20]: 97%
- IC50 [21]: 1.02 µM
- growth at 1 µM [22]: 62%
- growth at 10 µM [23]: -75%
- growth at 10 µM [24]: -87%
- growth at 1 µM [25]: 83%
- growth at 0.01 µM [26]: 92%
- GI50 [27]: 1.33 µM
- LC50 [27]: 6 µM
- TGI [27]: 2.83 µM
- growth at 10 µM [28]: -24%
- growth at 100 µM [29]: -92%
- growth at 1 µM [30]: 89%
- growth at 0.01 µM [31]: 97%
- growth at 0.01 µM [32]: 88%
- GI50 [33]: 1.09 µM
- LC50 [33]: 4.9 µM
- TGI [33]: 2.31 µM
- growth at 0.1 µM [34]: 99%
- growth at 0.01 µM [35]: 95%
- growth at 0.01 µM [36]: 99%
- growth at 0.1 µM [37]: 100%

SMILES: COc1ccc(-c2cc(/C=C/C(=O)c3ccc(N)cc3)[nH]n2)cc1OC
- growth at 0.1 µM [1]: 98%
- growth at 0.01 µM [2]: 92%
- growth at 0.1 µM [3]: 103%
- GI50 [4]: 4.36 µM
- TGI [4]: 18 µM
- CC50 [4]: 46.1 µM
- growth at 0.1 µM [5]: 97%
- growth at 1 µM [6]: 97%
- growth at 0.01 µM [7]: 103%
- growth at 0.1 µM [8]: 101%
- growth at 10 µM [9]: -8%
- growth at 100 µM [10]: -98%
- growth at 0.1 µM [11]: 108%
- growth at 0.01 µM [12]: 97%
- growth at 0.1 µM [13]: 104%
- growth at 100 µM [14]: -98%
- growth at 0.01 µM [15]: 102%
- GI50 [16]: 3.03 µM
- LC50 [16]: 43.2 µM
- TGI [16]: 13.1 µM
- growth at 0.01 µM [17]: 102%
- growth at 1 µM [18]: 89%
- growth at 0.1 µM [19]: 94%
- growth at 0.01 µM [20]: 98%
- IC50 [21]: 1.9 µM
- growth at 1 µM [22]: 71%
- growth at 10 µM [23]: -49%
- growth at 10 µM [24]: 24%
- growth at 1 µM [25]: 89%
- growth at 0.01 µM [26]: 83%
- GI50 [27]: 2.37 µM
- LC50 [27]: 26.2 µM
- TGI [27]: 7.09 µM
- growth at 10 µM [28]: -13%
- growth at 100 µM [29]: -98%
- growth at 1 µM [30]: 95%
- growth at 0.01 µM [31]: 93%
- growth at 0.01 µM [32]: 102%
- GI50 [33]: 1.74 µM
- LC50 [33]: 7.69 µM
- TGI [33]: 3.66 µM
- growth at 0.1 µM [34]: 107%
- growth at 0.01 µM [35]: 98%
- growth at 0.01 µM [36]: 101%
- growth at 0.1 µM [37]: 104%
